In experiment [1] the target is Beta-1 adrenergic receptor (Homo sapiens, UniProt P08588). It counts as functional.
Experiment [2] deals with T1, B2 bradykinin receptor (Homo sapiens, UniProt P30411).
T1 sequence (P30411 whole entry): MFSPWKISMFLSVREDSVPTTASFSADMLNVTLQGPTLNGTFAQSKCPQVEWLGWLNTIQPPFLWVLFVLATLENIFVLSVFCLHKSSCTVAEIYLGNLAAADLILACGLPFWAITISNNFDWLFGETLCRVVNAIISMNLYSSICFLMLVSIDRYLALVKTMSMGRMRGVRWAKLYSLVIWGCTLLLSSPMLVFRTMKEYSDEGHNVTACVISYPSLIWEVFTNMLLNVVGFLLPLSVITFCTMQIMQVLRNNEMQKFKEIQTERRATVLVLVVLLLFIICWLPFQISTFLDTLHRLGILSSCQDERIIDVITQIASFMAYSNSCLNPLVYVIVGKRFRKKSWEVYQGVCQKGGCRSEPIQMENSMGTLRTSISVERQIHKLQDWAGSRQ

In experiment [3] the target is T2, Cannabinoid receptor 1 (Homo sapiens, UniProt P21554). It counts as functional, cell-based.
T2 sequence (P21554 whole entry): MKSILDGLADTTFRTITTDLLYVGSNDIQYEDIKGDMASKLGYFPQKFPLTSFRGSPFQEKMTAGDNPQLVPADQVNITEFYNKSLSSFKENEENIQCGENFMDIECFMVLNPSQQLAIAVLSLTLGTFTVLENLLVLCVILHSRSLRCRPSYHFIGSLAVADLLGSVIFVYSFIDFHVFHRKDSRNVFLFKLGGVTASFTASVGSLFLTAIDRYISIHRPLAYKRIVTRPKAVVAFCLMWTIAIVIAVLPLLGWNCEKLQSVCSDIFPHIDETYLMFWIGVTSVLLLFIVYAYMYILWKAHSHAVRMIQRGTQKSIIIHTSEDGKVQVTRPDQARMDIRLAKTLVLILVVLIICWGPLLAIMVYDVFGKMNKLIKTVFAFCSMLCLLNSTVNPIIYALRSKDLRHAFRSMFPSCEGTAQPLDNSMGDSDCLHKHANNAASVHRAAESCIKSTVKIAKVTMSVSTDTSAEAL
Experiment [4] addresses T2, Cannabinoid receptor 1. In kind it is functional, cell-based. The source holds these as a separate data set.
Experiment [5] deals with Histamine H2 receptor (Homo sapiens, UniProt P25021). In kind it is functional, cell-based.
Chain of Histamine H2 receptor (P25021 whole entry): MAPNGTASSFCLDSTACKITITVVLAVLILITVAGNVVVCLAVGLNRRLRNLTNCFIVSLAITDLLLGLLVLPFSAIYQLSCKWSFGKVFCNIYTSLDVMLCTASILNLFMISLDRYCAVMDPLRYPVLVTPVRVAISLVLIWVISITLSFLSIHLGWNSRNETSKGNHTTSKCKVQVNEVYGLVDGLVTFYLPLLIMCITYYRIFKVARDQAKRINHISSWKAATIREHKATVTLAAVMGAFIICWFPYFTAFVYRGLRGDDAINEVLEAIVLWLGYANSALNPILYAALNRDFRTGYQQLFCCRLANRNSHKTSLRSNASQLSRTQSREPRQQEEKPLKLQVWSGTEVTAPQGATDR
In experiment [6] the target is T3, Alpha-1A adrenergic receptor (Homo sapiens, UniProt P35348).
T3 sequence (P35348 whole entry): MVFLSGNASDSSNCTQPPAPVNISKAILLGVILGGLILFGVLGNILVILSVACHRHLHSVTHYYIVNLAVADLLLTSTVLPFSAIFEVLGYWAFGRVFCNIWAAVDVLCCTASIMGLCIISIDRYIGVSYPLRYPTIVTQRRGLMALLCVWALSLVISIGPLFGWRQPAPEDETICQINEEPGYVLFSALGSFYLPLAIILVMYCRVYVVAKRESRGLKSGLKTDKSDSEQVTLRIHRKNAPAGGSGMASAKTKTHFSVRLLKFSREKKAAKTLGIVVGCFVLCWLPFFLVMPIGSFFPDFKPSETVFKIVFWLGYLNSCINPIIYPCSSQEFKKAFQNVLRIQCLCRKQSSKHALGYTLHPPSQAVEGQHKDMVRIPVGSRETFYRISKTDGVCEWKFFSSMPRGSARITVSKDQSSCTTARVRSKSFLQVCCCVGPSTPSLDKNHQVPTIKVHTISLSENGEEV

The target in experiment [7] is Gamma-aminobutyric acid receptor subunit alpha-1 (Rattus norvegicus, UniProt P62813).
Chain of Gamma-aminobutyric acid receptor subunit alpha-1 (P62813 whole entry): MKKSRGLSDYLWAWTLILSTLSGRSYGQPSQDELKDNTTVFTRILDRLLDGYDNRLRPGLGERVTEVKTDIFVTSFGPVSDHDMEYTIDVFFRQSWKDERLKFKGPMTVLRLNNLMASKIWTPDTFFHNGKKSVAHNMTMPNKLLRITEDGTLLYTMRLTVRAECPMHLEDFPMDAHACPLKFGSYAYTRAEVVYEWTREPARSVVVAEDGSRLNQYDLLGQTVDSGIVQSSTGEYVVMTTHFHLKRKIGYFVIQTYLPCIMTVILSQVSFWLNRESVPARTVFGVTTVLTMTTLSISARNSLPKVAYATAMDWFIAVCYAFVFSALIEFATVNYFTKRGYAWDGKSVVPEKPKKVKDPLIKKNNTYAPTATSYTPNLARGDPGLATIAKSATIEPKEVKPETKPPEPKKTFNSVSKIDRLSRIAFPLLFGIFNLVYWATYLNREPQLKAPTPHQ
Experiment [8] concerns the target Histamine H1 receptor (Homo sapiens, UniProt P35367).
Experiment [9] concerns the target T4, 5-hydroxytryptamine receptor 1A (Homo sapiens, UniProt P08908).
T4 sequence (P08908 whole entry): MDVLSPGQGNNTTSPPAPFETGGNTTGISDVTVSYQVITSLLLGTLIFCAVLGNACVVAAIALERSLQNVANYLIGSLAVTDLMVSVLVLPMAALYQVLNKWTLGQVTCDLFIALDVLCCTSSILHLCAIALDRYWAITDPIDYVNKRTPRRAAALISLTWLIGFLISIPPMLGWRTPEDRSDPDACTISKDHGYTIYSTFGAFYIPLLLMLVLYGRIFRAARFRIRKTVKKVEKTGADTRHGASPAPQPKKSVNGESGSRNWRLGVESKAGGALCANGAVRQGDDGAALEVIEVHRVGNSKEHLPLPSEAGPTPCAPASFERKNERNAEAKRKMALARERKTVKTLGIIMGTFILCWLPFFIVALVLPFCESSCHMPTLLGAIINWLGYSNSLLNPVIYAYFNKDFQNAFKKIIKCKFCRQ
In kind it is functional, cell-based.

For experiment [10], the target named is 5-hydroxytryptamine receptor 2A (Homo sapiens, UniProt P28223). In kind it is functional, cell-based.
Chain of 5-hydroxytryptamine receptor 2A (P28223 whole entry): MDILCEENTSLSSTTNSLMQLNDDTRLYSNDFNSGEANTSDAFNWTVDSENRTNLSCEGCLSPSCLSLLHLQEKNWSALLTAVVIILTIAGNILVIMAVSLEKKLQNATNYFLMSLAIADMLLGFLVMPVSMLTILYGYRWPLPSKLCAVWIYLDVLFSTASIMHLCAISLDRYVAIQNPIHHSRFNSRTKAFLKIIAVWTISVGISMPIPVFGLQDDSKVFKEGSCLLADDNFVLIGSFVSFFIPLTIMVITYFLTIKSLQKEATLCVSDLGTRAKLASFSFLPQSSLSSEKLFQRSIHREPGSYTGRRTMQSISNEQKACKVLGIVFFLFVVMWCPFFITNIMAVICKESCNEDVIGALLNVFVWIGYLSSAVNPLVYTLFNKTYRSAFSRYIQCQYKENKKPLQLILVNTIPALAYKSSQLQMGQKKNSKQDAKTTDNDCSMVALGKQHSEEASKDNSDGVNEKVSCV
Experiment [11] addresses Sodium-dependent serotonin transporter (Homo sapiens, UniProt P31645).
Experiment [12] addresses Acetylcholinesterase (Homo sapiens, UniProt P22303). It counts as functional.
Experiment [13] concerns the target D(1A) dopamine receptor (Homo sapiens, UniProt P21728).
Experiment [14] concerns the target T4, 5-hydroxytryptamine receptor 1A.
Experiment [15] concerns the target 3',5'-cyclic-AMP phosphodiesterase 4A (Homo sapiens, UniProt P27815). In kind it is functional.
Experiment [16] addresses Prostaglandin G/H synthase 1 (Homo sapiens, UniProt P23219). In kind it is functional.
Experiment [17] addresses T3, Alpha-1A adrenergic receptor. In kind it is functional, cell-based.

What is called AC50 is the midpoint of the concentration-response curve, whichever way the signal moves. Lower therefore signals activity at low concentration.

Structures are written as SMILES. Some results are limits rather than exact numbers.
Further: assay procedure not described here.

Chain of D(1A) dopamine receptor (P21728 whole entry): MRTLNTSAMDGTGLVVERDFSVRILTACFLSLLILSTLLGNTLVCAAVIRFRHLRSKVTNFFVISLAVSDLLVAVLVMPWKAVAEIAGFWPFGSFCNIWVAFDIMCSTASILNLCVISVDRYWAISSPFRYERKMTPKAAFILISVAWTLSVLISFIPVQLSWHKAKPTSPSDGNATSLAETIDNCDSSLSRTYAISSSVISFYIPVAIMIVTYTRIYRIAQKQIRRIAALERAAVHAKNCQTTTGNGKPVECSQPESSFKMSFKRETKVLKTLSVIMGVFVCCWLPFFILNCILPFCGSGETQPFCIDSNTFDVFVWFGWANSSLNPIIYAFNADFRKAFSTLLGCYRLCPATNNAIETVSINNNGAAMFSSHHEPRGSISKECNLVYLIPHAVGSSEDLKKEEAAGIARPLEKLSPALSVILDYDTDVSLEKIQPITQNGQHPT
Chain of Acetylcholinesterase (P22303 whole entry): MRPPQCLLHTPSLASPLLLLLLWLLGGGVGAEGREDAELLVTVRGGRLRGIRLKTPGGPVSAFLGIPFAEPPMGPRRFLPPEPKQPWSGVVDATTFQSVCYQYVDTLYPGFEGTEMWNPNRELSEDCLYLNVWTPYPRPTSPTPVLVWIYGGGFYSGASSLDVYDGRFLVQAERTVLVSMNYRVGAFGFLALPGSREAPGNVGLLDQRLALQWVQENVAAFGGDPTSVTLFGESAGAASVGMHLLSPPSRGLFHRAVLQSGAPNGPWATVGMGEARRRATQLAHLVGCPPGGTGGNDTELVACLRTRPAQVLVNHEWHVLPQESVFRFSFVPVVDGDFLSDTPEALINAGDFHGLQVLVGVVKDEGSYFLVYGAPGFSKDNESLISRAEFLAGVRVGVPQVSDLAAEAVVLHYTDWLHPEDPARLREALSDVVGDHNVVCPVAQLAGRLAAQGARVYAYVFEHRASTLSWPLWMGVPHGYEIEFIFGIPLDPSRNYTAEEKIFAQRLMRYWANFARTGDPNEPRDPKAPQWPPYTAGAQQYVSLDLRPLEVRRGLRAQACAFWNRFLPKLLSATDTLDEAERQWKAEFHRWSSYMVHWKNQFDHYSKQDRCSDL
Chain of Sodium-dependent serotonin transporter (P31645 whole entry): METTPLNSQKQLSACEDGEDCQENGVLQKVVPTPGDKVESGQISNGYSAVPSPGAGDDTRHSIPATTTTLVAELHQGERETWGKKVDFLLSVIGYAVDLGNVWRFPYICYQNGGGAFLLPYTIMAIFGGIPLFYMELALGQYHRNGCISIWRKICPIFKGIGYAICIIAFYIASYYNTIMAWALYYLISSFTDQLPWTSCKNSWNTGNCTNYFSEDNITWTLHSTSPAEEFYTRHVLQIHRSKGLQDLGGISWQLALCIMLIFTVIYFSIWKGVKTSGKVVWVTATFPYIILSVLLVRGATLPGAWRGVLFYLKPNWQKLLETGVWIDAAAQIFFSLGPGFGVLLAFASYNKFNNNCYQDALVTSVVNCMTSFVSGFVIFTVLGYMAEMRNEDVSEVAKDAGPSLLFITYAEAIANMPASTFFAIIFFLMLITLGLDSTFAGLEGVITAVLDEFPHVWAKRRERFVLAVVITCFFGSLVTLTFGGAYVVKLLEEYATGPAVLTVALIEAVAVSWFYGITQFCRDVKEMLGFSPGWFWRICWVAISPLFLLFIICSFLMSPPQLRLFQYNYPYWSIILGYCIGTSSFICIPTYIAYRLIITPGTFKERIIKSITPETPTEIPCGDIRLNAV
Chain of Histamine H1 receptor (P35367 whole entry): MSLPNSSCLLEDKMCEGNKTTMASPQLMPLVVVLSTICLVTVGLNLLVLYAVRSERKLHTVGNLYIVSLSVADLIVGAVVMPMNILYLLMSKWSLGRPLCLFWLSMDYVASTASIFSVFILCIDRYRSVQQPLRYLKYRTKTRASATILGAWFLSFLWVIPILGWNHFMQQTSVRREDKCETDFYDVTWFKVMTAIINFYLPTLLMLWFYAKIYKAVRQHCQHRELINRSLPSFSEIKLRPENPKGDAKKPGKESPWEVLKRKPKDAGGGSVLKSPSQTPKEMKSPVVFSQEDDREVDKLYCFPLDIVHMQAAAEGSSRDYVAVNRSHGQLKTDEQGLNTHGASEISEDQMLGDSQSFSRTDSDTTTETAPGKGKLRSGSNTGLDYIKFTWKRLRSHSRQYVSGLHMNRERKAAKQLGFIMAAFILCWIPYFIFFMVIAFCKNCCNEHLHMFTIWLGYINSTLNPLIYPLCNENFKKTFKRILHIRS
Chain of 3',5'-cyclic-AMP phosphodiesterase 4A (P27815 whole entry): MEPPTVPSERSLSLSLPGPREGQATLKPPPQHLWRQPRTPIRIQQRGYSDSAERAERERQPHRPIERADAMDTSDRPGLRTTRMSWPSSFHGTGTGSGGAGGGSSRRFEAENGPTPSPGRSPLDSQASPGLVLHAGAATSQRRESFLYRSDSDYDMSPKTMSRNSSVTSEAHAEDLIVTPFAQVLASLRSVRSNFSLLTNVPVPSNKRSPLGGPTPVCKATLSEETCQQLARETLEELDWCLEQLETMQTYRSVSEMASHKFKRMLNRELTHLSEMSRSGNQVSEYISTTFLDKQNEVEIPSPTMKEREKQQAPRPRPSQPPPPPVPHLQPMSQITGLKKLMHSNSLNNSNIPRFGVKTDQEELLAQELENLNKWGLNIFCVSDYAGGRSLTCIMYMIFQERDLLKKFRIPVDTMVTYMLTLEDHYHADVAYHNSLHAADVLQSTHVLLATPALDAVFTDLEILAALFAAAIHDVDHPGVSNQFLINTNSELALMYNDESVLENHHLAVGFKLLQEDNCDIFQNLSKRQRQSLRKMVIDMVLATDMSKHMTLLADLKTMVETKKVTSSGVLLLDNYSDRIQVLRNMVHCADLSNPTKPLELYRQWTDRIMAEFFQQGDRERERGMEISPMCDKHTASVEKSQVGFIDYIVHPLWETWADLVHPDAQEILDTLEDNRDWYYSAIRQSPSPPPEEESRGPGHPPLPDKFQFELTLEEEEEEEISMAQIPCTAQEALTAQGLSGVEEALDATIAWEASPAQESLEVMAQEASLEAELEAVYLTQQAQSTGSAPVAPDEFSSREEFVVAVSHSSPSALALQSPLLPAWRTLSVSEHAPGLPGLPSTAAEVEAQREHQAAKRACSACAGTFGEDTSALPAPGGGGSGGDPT

For `Cc1cccc(C)c1OCC(C)N` (centres undefined) [MEXILETINE], the half-maximal activity concentration (AC50) in experiment [1], in experiment [2], in experiment [3], in experiment [4] and in [5] was over 30 µM throughout.

As for `CNC(=O)c1cc(Oc2ccc(NC(=O)Nc3ccc(Cl)c(C(F)(F)F)c3)cc2)ccn1` [SORAFENIB], the AC50 in experiment [6] was over 10 µM; in experiment [1], 28 µM; in experiment [2], over 30 µM; in experiment [3] it was over 30 µM; in experiment [4] it was over 30 µM; in experiment [7] it was over 30 µM. The AC50 in experiment [8] and in [5] was over 30 µM each time.

As for `CC(=O)OCC(=O)[C@@]1(O)CC[C@H]2[C@@H]3CCC4=CC(=O)CC[C@]4(C)[C@H]3C(=O)C[C@@]21C` [CORTISONE ACETATE], the AC50 in experiment [3], in [4], in experiment [7], in experiment [5] and in experiment [9] was over 30 µM throughout.

As for `CCCS(=O)(=O)Nc1ccc(F)c(C(=O)c2c[nH]c3ncc(-c4ccc(Cl)cc4)cc23)c1F` [VEMURAFENIB], the AC50 in experiment [1], in experiment [2], in experiment [3], in experiment [4], in [7] and in [8] was over 30 µM throughout. Also, the AC50 in experiment [5], in experiment [10] and in [11] was over 30 µM throughout.

Consider `N[C@@H](C(=O)N[C@@H]1C(=O)N2C(C(=O)O)=C(Cl)CS[C@H]12)c1ccccc1` [CEFACLOR ANHYDROUS], for which the AC50 in experiment [1], in experiment [2], in experiment [3], in [4], in [8] and in experiment [5] was over 30 µM each time. The AC50 in experiment [10] and in experiment [11] was over 30 µM in each case.

In the case of `CN1CCCC(n2nc(Cc3ccc(Cl)cc3)c3ccccc3c2=O)CC1` (centres undefined) [AZELASTINE], the AC50 is 18 µM in [1]; over 30 µM in experiment [3]; over 30 µM in [4]; over 30 µM in experiment [9]; 4.6 µM in experiment [10]; 3.5 µM in experiment [11].

Turning to `NC(=O)c1ncn([C@@H]2O[C@H](CO)[C@@H](O)[C@H]2O)c1O` [MIZORIBINE], the AC50 in experiment [1], in [2], in experiment [3], in experiment [4], in experiment [8] and in experiment [5] was over 30 µM in each case. Also, the AC50 in experiment [9], in experiment [10] and in experiment [11] was over 30 µM throughout.

Turning to `OCc1cc([C@@H](O)CNCCCCCCOCCOCc2c(Cl)cccc2Cl)ccc1O` [VILANTEROL], the AC50 is over 30 µM in experiment [3]; over 30 µM in [4]; over 30 µM in experiment [8]; over 30 µM in [9]; 23 µM in experiment [10]; 2.8 µM in experiment [11].

Take `CC(=O)c1ccc2c(c1)N(CCCN1CCN(CCO)CC1)c1ccccc1S2` [ACETOPHENAZINE]: the AC50 in experiment [3] was over 30 µM; in experiment [4], over 30 µM; in experiment [8] it was 0.049 µM; in experiment [9] it was 0.007 µM; in experiment [10] it was 0.87 µM; in experiment [11], 17 µM.

In the case of `Cc1cc2c(cc1CC(=O)c1sccc1S(=O)(=O)Nc1onc(C)c1Cl)OCO2` [SITAXENTAN], the AC50 in [12] was over 30 µM; in [13] it was over 30 µM; in [14] it was over 30 µM; in experiment [15], 25 µM; in experiment [16] it was over 30 µM.

For the molecule `OCCN1CCN(CCCN2c3ccccc3C=Cc3ccccc32)CC1` [OPIPRAMOL], the AC50 in experiment [12], in experiment [17], in experiment [1], in experiment [2], in [3] and in experiment [4] was over 30 µM each time. For the same molecule, the AC50 in experiment [13] is 1.29 µM; in experiment [8], 0.081 µM; in experiment [5], over 30 µM; in [9] it was over 30 µM; in experiment [14], 9.25 µM; in experiment [10], 28 µM. In addition, the half-maximal activity concentration (AC50) was over 30 µM in experiment [15], 27.5 µM in experiment [16] and over 30 µM in experiment [11].

As for `COC(=O)N[C@H](C(=O)N1CCC[C@H]1c1nc(-c2ccc(-c3ccc(-c4c[nH]c([C@@H]5CCCN5C(=O)[C@@H](NC(=O)OC)C(C)C)n4)cc3)cc2)c[nH]1)C(C)C`, the concentration at half-maximal activity (AC50) in [1], in experiment [2], in experiment [7], in experiment [8], in experiment [5] and in experiment [10] was over 30 µM throughout. For the same molecule, in [11], the AC50 was over 30 µM.

For the molecule `CC[C@H](C)C(=O)O[C@H]1C[C@H](O)C=C2C=C[C@H](C)[C@H](CC[C@@H](O)C[C@@H](O)CC(=O)O)[C@H]21` [PRAVASTATIN], the AC50 in [6] was over 10 µM; in experiment [1] it was over 30 µM; in experiment [3], over 30 µM; in experiment [4] it was over 30 µM; in experiment [7], over 10 µM; in [5], over 10 µM. In experiment [9], the AC50 was over 30 µM.

With `CC(C)NNC(=O)c1ccncc1` [IPRONIAZID], the AC50 in experiment [1], in experiment [3], in [4] and in experiment [9] was over 30 µM in each case.

As for `CC(C)Cc1ccc(CC(=O)O)cc1` [IBUFENAC], the AC50 in experiment [1], in experiment [3], in experiment [4], in experiment [8], in experiment [9] and in [10] was over 30 µM throughout. In [11], the AC50 was over 30 µM.

`CCC(=O)O[C@H]1[C@H](O[C@@H]2[C@@H](C)[C@H](O[C@H]3C[C@@](C)(OC)[C@@H](O)[C@H](C)O3)[C@@H](C)C(=O)O[C@H](CC)[C@@](C)(O)[C@H](O)[C@@H](C)C(=O)[C@H](C)C[C@@]2(C)O)O[C@H](C)C[C@@H]1N(C)C` [ERYTHROMYCIN PROPIONATE]: the AC50 in experiment [12] was over 30 µM; in experiment [13], over 30 µM; in experiment [14] it was 15.1 µM; in [15], over 30 µM; in experiment [16], over 30 µM.

As to `COc1ccc2c(c1)C(=O)N(CCc1ccc(S(=O)(=O)NC(=O)NC3CCCCC3)cc1)C(=O)C2(C)C` [GLIQUIDONE], the AC50 in experiment [1] is over 30 µM; in [2], over 30 µM; in [7], over 30 µM; in experiment [8], over 30 µM; in experiment [5] it was over 30 µM; in [10] it was 13 µM. The AC50 in [11] was over 30 µM.

In the case of `O=C(NC[C@H]1CN(c2ccc(N3CCOCC3=O)cc2)C(=O)O1)c1ccc(Cl)s1` [RIVAROXABAN], the AC50 in [12], in [17], in [3], in experiment [13], in [8] and in [14] was over 30 µM each time. The AC50 in experiment [10], in experiment [15], in experiment [16] and in [11] was over 30 µM each time.

The values are drawn from ChEMBL document CHEMBL5291721, “A preclinical secondary pharmacology resource illuminates target-adverse drug reaction associations of marketed drugs” (Nat Commun, 2023).
